According to patent US5866577A, “Aromatic amidine derivatives and salts thereof” (priority 1991, dated 1999):
Counter-ions that a name gives are not always drawn.

How the values were obtained:
[1] = Solubility observed in preparation (solubility to any solvent); format: physicochemical; conditions: hydrochloride monohydrate
[2] = Measurement of Solubility in Water
Procedure: A fixed amount of water was added to a varying amounts of each sample, and the mixture was agitated on a shaker at 25° C. for 10 minutes.

[3] = tested on: human blood plasma (clotting time); test: Measurement of Anticoagulant Activity (plasma clotting time, CT2); format: biochemical; conditions: concentration which doubles the control clotting time, 37° C.
Procedure: Measurement of Anticoagulant Activity A blood plasma sample was prepared from human blood using a centrifuge. […] Thereafter, clotting time was measured using CLOTEC (Sanko Junyaku Co., Ltd.). A clotting time measured without adding a compound to be tested was used as a control, and a concentration of the test compound which doubles the control clotting time was calculated (hereinafter referred to as "CT2") as an index of the anticoagulant activity.

[4] = prior-art statement; cited from earlier work
anticoagulant effect = conditions: oral; prior-art statement; cited from earlier work
FXa and thrombin = conditions: prior-art statement; cited from earlier work
human FXa = human FXa (Homo sapiens, UniProt P00742); test: Measurement of Activated Blood Coagulation Factor X (FXa) Inhibition Activity; format: biochemical; conditions: substrate S-2222, 37° C., 15 minutes
human FXa, sequence (P00742 235-488 limits assumed): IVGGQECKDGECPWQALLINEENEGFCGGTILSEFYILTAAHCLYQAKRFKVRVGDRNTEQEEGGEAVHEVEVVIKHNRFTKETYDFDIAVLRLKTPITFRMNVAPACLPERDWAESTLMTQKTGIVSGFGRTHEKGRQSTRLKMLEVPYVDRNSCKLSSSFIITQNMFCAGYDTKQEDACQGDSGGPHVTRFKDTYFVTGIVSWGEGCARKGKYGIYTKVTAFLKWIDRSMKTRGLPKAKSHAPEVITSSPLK
human FXa, sequence (P00742 41-179 limits assumed): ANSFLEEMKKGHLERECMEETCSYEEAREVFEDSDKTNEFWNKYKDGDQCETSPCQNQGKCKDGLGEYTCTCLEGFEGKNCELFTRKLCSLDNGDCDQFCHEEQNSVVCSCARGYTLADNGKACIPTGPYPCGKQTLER
Procedure: Measurement of Activated Blood Coagulation Factor X (FXa) Inhibition Activity
A 180 μl portion of physiological saline solution containing a compound to be tested was mixed with 200 μl of Tris-HCl buffer (pH 8.4) and 100 μl of 1 mM S-2222 (KabiVitrum AB) aqueous solution, and the mixture was incubated at 37° C. 20 μl of Tris-HCl buffered saline (pH 7.45) containing 0.6 unit/ml of human FXa was added to the mixture. After 15 minutes of incubation at the same temperature, the reaction was stopped by adding 100 μl of 60% acetic acid, and absorbance of the reaction mixture was measured. A reaction mixture with no addition of a test compound was used as a blank, and another reaction mixture in which 60% acetic acid was added prior to the addition of FXa was used as a control.

male Slc:SD rats [5] = test: Toxicity Test by Repeated Oral Administration to Rat; format: in vivo; conditions: oral 800 mg/kg once a day for 10 days, 5 rats administered
Procedure: Toxicity Test by Repeated Oral Administration to Rat
Each of the compounds of the present invention was dissolved in distilled water and administered orally to each of five five-week old male Slc:SD rats, at a dose of 800 mg/kg body weight. The oral administration was carried out once a day and repeated for 10 days to observe mortality.

male Slc:SD rats [6] = test: Toxicity Test by Single Oral Administration to Rat; conditions: in vivo
[7] = tested on: thrombus formed on copper wire in arteriovenous shunt; test: Antithrombotic Effect by Oral Administration to Rat in an Arteriovenous Shunt Model; format: in vivo, male STD:Wistar rat; conditions: for Thrombus formed: mean ± S.E. (n = 6), p < 0.05 per control
Procedure: Antithrombotic Effect by Oral Administration to Rat in an Arteriovenous Shunt Model
Amtithrombotic effect by oral administration of the compound of the present invention was measured by slightly modifying the procedure disclosed in Thrombosis Research, vol. 54, pp. 399-410, 1989.
A predetermined amount of a compound to be tested was dissolved in purified water and administered orally to a male STD:Wistar rat, and the rat was anesthetized 15 minutes after the administration. An artery clip was attached to proximally the carotid artery of the thus anesthetized rat to stop blood circulation and to insert and fix an end of a shunt filled with physiological saline, while the other end of the shunt was inserted into the jugular vein and fixed. In this instance, the shunt was prepared by indwelling a copper wire (0.17 mm in diameter and 20 cm in length) in a polyethylene tube (Hibiki No. 5; 5/3 mm in outer diameter and 21 cm in length) and connecting each end of the tube with a polyethylene tube (Hibiki No. 3; 1 mm in outer diameter and 3 cm in length) using a 3 mm silicone tube. After 30 minutes of the administration, the artery clip was removed to flow blood into the shunt. After 7 minutes of the blood recirculation, the copper wire was pulled out together with formed thrombus and washed with 10 ml of physiological saline. Thereafter, the amount of thrombus formed on the copper wire was determined as protein in accordance with the procedure disclosed in Journal of Biological Chemistry, vol. 193, pp. 265-275, 1951. As a control, water was administered instead of the compound to be tested to calculate thrombosis inhibition rate after administration of the compound.

| SMILES | solubility at 10 min [2] [mg/mL] | Anti-Coagulation CT2 [3] [µM] | Mortal Case (male Slc:SD rats [5]) | other results |
| --- | --- | --- | --- | --- |
| Cl.N=C(N)c1ccc2ccc(CC(C(=O)O)c3ccc(OCC4CCNCC4)cc3)cc2c1.O (centres unmarked) [Inventive Example 18, 3-(7-amidino-2-naphthyl)-2-[4-[(4-piperidinyl)methoxy]-phenyl]propionic Acid Hydrochloride Monohydrate] | – | – | – | solubility to any solvent (in words) [1]: very low |
| N=C(N)c1ccc2oc(CCc3cc4cc(C(=N)N)ccc4o3)cc2c1 [DABE, 1,2-bis(5-amidino-2-benzofuranyl)ethane, reference compound] | ≤ 5 | 1.6 | – | water solubility (in words) [4]: very low water solubility; anticoagulant effect when administered orally (in words) (anticoagulant effect): does not show its anticoagulant effect when administered orally; separation of FXa and thrombin inhibitory activities (in words) (FXa and thrombin): cannot be separated sufficiently from each other; IC50 (human FXa): 0.095 µM |
| CC(=N)N1CC[C@H](Oc2ccc(C(Cc3cc4cc(C(=N)N)ccc4s3)C(=O)O)cc2)C1 (stereo partly drawn) [Inventive Example 88, 2-[4-[((3S)-1-acetimidoyl-3-pyrrolidinyl)oxy]phenyl]-3-(5-amidinobenzo[b]thien-^2-yl)propionic Acid Dihydrochloride] | – | – | 0 | – |
| Cl.Cl.N=C(N)c1ccc2oc(CC(C(=O)O)c3ccc(O[C@H]4CCNC4)cc3)cc2c1 (stereo partly drawn) [Inventive Example 19, 3-(5-amidino-2-benzofuranyl)-2-[4-[((3S)-3-pyrrolidinyl)-oxy]phenyl]propionic Acid Dihydrochloride] | ≥ 450 | – | 0 | – |
| Cl.Cl.N=C(N)c1ccc2sc(CC(C(=O)O)c3ccc(O[C@H]4CCNC4)cc3)cc2c1 (stereo partly drawn) [Inventive Example 25, 3-(5-amidinobenzo[b]thien-2-yl)-2-[4-[((3S)-3-pyrrolidin-yl)oxy]phenyl]propionic Acid Dihydrochloride] | ≥ 500 | – | 0 | – |
| CC(=N)N1CC[C@H](Oc2ccc(C(Cc3ccc4ccc(C(=N)N)cc4c3)C(=O)O)cc2)C1.Cl.O.O.O.O.O (single isomer, unassigned; (+)) [Inventive Example 45] | ≥ 200 | 0.49 | 0 | mortality (male Slc:SD rats [6]): No mortal case; Thrombosis inhibition ([7]; 10 mg/kg): 34%; Thrombus formed ([7]; 10 mg/kg): 585 ± 85 µg; Thrombosis inhibition ([7]; 30 mg/kg): 60%; Thrombus formed ([7]; 30 mg/kg): 356 ± 51 µg |
